The values below come from paper PMC6193737, “Ligand binding properties of two Brugia malayi fatty acid and retinol (FAR) binding proteins and their vaccine efficacies against challenge infection in gerbils” (PLoS Neglected Tropical Diseases, 2018).

Common to all, as to assay type: binding
Test [1] deals with T1, rOv-FAR-1 (Onchocerca volvulus, UniProt Q25619).
T1 construct: recombinant from E. coli, produced by procedures similar to rBm-FAR-2 (His tag, IMAC, signal peptide removed)
Put plainly: fluorescence emission enhancement and blue shift. The note with it: PBS pH 7.2; DAUDA ~1 uM; excitation 345 nm; fluorophore-tagged fatty acid.

The target of test [2] is T2, rBm-FAR-1 (Brugia malayi, UniProt A0A0K0J905).
T2 construct: gene bma-far-1; signal peptide removed; C-terminal 6His tag; secreted from Pichia (PichiaPink strain 4, pPinkalpha-HC, codon optimised); IMAC; ~19 kDa
T2 sequence (A0A0K0J905 entry or part of it): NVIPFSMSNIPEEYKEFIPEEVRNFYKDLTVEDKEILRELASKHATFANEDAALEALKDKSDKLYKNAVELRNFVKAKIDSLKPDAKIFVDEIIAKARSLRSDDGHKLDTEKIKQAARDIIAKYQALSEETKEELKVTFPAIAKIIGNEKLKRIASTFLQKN
Put plainly: fluorescence emission enhancement and blue shift. The note with it: PBS pH 7.2; DAUDA ~1 uM; excitation 345 nm; fluorophore-tagged fatty acid.

The target of test [3] is T2, rBm-FAR-1. The test can be described thus: fluorescence emission enhancement. The note with it: PBS pH 7.2.
Test [4] has as its target T1, rOv-FAR-1. The test can be described thus: fluorescence emission enhancement. The note with it: PBS pH 7.2.
Test [5] concerns the target T3, rOv-FAR-2 (Onchocerca volvulus, UniProt C7DRP3).
T3 construct: recombinant from E. coli, produced by procedures similar to rBm-FAR-2 (His tag, IMAC, signal peptide removed)
The test can be described thus: fluorescence emission enhancement. Conditions: PBS pH 7.2.

Setting [6] is: retinol ~4 uM, excitation 350 nm.

T1 sequence (Q25619 17-178): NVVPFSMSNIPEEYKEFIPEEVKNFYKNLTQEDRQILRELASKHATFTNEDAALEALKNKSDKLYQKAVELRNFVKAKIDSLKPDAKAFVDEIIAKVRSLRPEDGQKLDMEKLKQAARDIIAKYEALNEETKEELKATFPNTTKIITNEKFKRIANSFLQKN
T3 sequence (C7DRP3 entry or part of it): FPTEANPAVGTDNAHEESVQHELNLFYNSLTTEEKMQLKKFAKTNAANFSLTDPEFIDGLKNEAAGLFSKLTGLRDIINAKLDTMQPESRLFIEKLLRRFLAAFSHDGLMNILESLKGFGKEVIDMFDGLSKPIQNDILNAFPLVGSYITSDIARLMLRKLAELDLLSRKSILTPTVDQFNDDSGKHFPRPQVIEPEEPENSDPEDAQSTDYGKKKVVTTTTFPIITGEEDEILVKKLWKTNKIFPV

With `CN(C)c1cccc2c(S(=O)(=O)NCCCCCCCCCCC(=O)O)cccc12` [DAUDA, 11-((5-dimethylaminonaphthalene-1-sulfonyl)amino)undecanoic], the “fluorescence emission enhancement and blue shift” value is “FAR-1s bind DAUDA, yielding similarly substantial increases and blue shift” in test [1]; “rBm-FAR-1 produced a large increase in DAUDA emission and a substantial blue-shift” in test [2].

As for `CC1=C(/C=C/C(C)=C/C=C/C(C)=C/CO)C(C)(C)CCC1` [all-trans retinol], the fluorescence emission enhancement result was “Addition of retinol to either rBm-FAR-1 or rBm-FAR-2 resulted in substantial increases in fluorescence emission” in test [3] (setting [6]), “the proteins from both parasites bind retinol” in test [4] (setting [6]) and “the proteins from both parasites bind retinol” in test [5] (setting [6]).

Regarding `CC\C=C/C=C/C=C/C=C\CCCCCCCC(=O)O` [cis-parinaric acid], the fluorescence emission enhancement entry in test [3] (cPnA ~4 uM, excitation 319 nm) was “Both rBm-FAR-1 and rBm-FAR-2 bound cPnA”; in test [4] (cPnA ~4 uM, excitation 319 nm), “both FAR-1s and FAR-2s bind a natural, intrinsically fluorescent, fatty acid acid (cPnA)”; in test [5] (cPnA ~4 uM, excitation 319 nm) it was “both FAR-1s and FAR-2s bind a natural, intrinsically fluorescent, fatty acid acid (cPnA)”.
